Experimental data as given in PubChem BioAssay (NCI).
Several values for one entry are separate records, joined by “and”; a condition that tells them apart may be missing. Equal values may be shown once.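 The concentration for 50% growth inhibition is given as GI50. TGI: concentration producing complete growth inhibition.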

How the values were obtained:
Assay in all cases: growth of human tumour cells (NCI), 384-well format
[1] = tested on: K-562 leukemia
[2] = tested on: 786-0 renal
[3] = tested on: UACC-62 melanoma
[4] = tested on: MDA-MB-231 breast
[5] = tested on: HOP-62 NSCLC
[6] = tested on: HS 578T breast
[7] = tested on: ACHN renal
[8] = tested on: RXF 393 renal
[9] = tested on: HCC-2998 colon
[10] = tested on: T-47D breast
[11] = tested on: UACC-257 melanoma
[12] = tested on: HL-60(TB) leukemia
[13] = tested on: KM12 colon
[14] = tested on: MOLT-4 leukemia
[15] = tested on: CAKI-1 renal
[16] = tested on: OVCAR-5 ovarian
[17] = tested on: SK-MEL-28 melanoma
[18] = tested on: NCI-H226 lung
[19] = tested on: SNB-75 CNS
[20] = tested on: PC-3 prostate
[21] = tested on: U251 glioblastoma
[22] = tested on: HOP-92 NSCLC
[23] = tested on: M14 melanoma
[24] = tested on: SF-268 CNS
[25] = tested on: SK-OV-3 ovarian
[26] = tested on: OVCAR-4 ovarian
[27] = tested on: BT-549 breast
[28] = tested on: OVCAR-3 ovarian
[29] = tested on: SF-539 CNS
[30] = tested on: COLO 205 colon
[31] = tested on: MDA-MB-468 breast
[32] = tested on: SN12C renal
[33] = tested on: CCRF-CEM leukemia
[34] = tested on: EKVX NSCLC
[35] = tested on: LOX IMVI melanoma
[36] = tested on: NCI-H522 lung
[37] = tested on: MDA-MB-435 melanoma
[38] = tested on: OVCAR-8 ovarian
[39] = tested on: SNB-19 CNS
[40] = tested on: RPMI-8226 leukemia
[41] = tested on: MALME-3M melanoma
[42] = tested on: SK-MEL-2 melanoma
[43] = tested on: SR leukemia
[44] = tested on: NCI/ADR-RES ovarian
[45] = tested on: SF-295 CNS
[46] = tested on: NCI-H23 lung
[47] = tested on: NCI-H322M lung
[48] = tested on: A549 NSCLC
[49] = tested on: A498 renal
[50] = tested on: DU-145 prostate
[51] = tested on: HT29 colon

Compound: CC(=O)c1c(C)c2cnc(Nc3ccc(N4CCNCC4)cn3)nc2n(C2CCCC2)c1=O
- GI50 [1]: 2.64 µM
- TGI [1]: 9.38 µM
- TGI [2]: 10.3 µM and > 100 µM
- TGI [3]: 11.4 µM and > 100 µM
- TGI [4]: 14.4 µM and > 100 µM
- TGI [5]: 13.7 µM and > 100 µM
- GI50 [6]: 10.1 µM and > 100 µM
- TGI [6]: 17.2 µM and > 100 µM
- GI50 [7]: 0.976 µM and 3.18 µM
- GI50 [8]: 11.4 µM and > 100 µM
- TGI [8]: 18.7 µM and > 100 µM
- TGI [9]: 10.9 µM and > 100 µM
- TGI [10]: 14.8 µM and > 100 µM
- TGI [11]: 13.3 µM and > 100 µM
- GI50 [12]: 0.0811 µM and 0.0379 µM
- GI50 [13]: 0.713 µM and 0.388 µM
- GI50 [14]: 0.121 µM and 0.123 µM
- TGI [14]: 5.1 µM and 4.65 µM
- GI50 [15]: 0.686 µM and 0.698 µM
- TGI [16]: 12 µM and > 100 µM
- TGI [17]: 13 µM and > 100 µM
- TGI [18]: 13.1 µM and > 100 µM
- TGI [19]: 14.2 µM and > 100 µM
- TGI [20]: 15.4 µM and > 100 µM
- TGI [21]: 12.2 µM and > 100 µM
- TGI [22]: 15 µM and > 100 µM
- TGI [23]: 11 µM and > 100 µM
- TGI [24]: 13 µM and > 100 µM
- TGI [25]: 14.8 µM and > 100 µM
- GI50 [26]: 11.2 µM and > 100 µM
- TGI [26]: 18.6 µM and > 100 µM
- TGI [27]: 14.3 µM and > 100 µM
- TGI [28]: 16.4 µM and > 100 µM
- TGI [29]: 16.7 µM and > 100 µM
- TGI [30]: 11 µM and > 100 µM
- TGI [31]: 10.1 µM and > 100 µM
- TGI [32]: 13.3 µM and > 100 µM
- GI50 [33]: 0.191 µM
- TGI [33]: 5.34 µM
- TGI [34]: 15.4 µM and > 100 µM
- GI50 [35]: 25.4 µM
- TGI [35]: > 100 µM
- TGI [36]: 15 µM and > 100 µM
- TGI [37]: 11.6 µM and > 100 µM
- TGI [38]: 16.4 µM and > 100 µM
- TGI [39]: 13.9 µM and > 100 µM
- GI50 [40]: 0.422 µM
- TGI [40]: > 100 µM
- TGI [41]: 11.2 µM and > 100 µM
- GI50 [42]: 9.24 µM
- TGI [42]: 16.2 µM
- GI50 [43]: 0.428 µM and 0.198 µM
- TGI [43]: 3.83 µM and 0.634 µM
- TGI [44]: 17.1 µM and > 100 µM
- TGI [45]: 13.7 µM and > 100 µM
- TGI [46]: 15.1 µM and > 100 µM
- TGI [47]: 14.5 µM and > 100 µM
- TGI [48]: 10.8 µM and > 100 µM
- TGI [49]: 13.1 µM and > 100 µM
- TGI [50]: 14.6 µM and > 100 µM
- TGI [51]: 12.1 µM and > 100 µM
